Source: US20260103740A1, “METHOD AND APPARATUS FOR USING L[…] BEADS FOR ANTIMICROBIAL SUSCEPTIBILITY TESTING” (General Electric Company, priority 2022, published 2026)

System: E. coli
Settings: samples loaded by microfluidic manifold and manually (non-manifold control); antibiotic bead minus control bead Ct; FIG. 7
Description: The tetracycline-lyophilized reagent bead 68 was prepared such that each tetracycline-lyophilized reagent bead 68 when dissolved in 10 microliters of water yields a solution containing 0.1, 0.5, 2, and 10, micrograms of tetracycline/mL of water. To complete the trials, the embedded amplification bead 20 in the solid wax 28 was placed at the bottom of each of the amplification reaction vessels 24, and the antibiotic bead 22 was placed on top of the solid wax 28. […] Bacterial growth in the presence of the varying tetracycline concentrations mentioned above was conducted for a period of about three hours at an incubation temperature of 37° C. The temperature was then raised to above the melting point of the solid wax 28, and amplification was performed to assess the inhibitory effects of tetracycline on bacterial growth. The threshold value (Ct) of the amplification reactions were measured. […] The data was normalized by subtracting the mean Ct value for no-drug positive control from individual Ct values across the drug-containing incubations. […]
As shown in the graphical representation of lyophilized drug reagent bead testing 60, the tetracycline concentration 62 for both liquid tetracycline 66, the control group reagent, and tetracycline-lyophilized reagent beads 68 were measured in micrograms per milliliter (μg/mL), relative to the delta Ct values 64 produced by the concentration. […]

Q: With CN(C)[C@@H]1C(O)=C(C(N)=O)C(=O)[C@@]2(O)C(O)=C3C(=O)c4c(O)cccc4[C@@](C)(O)[C@H]3C[C@@H]12.Cl [tetracycline, Tetracycline hydrochloride] as the compound, how does the “growth inhibition (delta Ct values versus tetracycline concentration)” value read?
A: demonstrated growth inhibition at the same concentrations
